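Method: 48-hour compound exposure of cells in 96-well plates, five concentrations, linear interpolation of endpoints. Definition used: TGI = concentration required for complete inhibition of growth.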
Assays:
Assay in all cases: inhibition of tumour cell growth, NCI panel, 48 h
[1] = test system: HOP-92 NSCLC
[2] = test system: SNB-75 CNS
[3] = test system: A498 renal
[4] = test system: SF-268 CNS
[5] = test system: CAKI-1 renal
[6] = test system: HL-60(TB) leukemia
[7] = test system: HOP-62 NSCLC
[8] = test system: LOX IMVI melanoma
[9] = test system: T-47D breast
[10] = test system: NCI-H460 lung
[11] = test system: HCT-116 colon
[12] = test system: UACC-257 melanoma
[13] = test system: SNB-19 CNS
[14] = test system: RXF 393 renal
[15] = test system: U251 CNS
[16] = test system: SF-295 CNS
[17] = test system: OVCAR-5 ovarian
[18] = test system: MOLT-4 leukemia
[19] = test system: HT29 colon
[20] = test system: SK-MEL-2 melanoma
[21] = test system: DU-145 prostate
[22] = test system: A549 NSCLC
[23] = test system: SF-539 CNS
[24] = test system: MALME-3M melanoma
[25] = test system: COLO 205 colon
[26] = test system: UACC-62 melanoma
[27] = test system: OVCAR-3 ovarian
[28] = test system: HCC-2998 colon
[29] = test system: NCI/ADR-RES ovarian
[30] = test system: M14 melanoma
[31] = test system: HCT-15 colon
[32] = test system: SK-MEL-28 melanoma
[33] = test system: CCRF-CEM leukemia
[34] = test system: 786-0 renal
[35] = test system: MDA-MB-231 breast
[36] = test system: UO-31 renal
[37] = test system: SN12C renal
[38] = test system: SK-OV-3 ovarian
[39] = test system: MCF7 breast
[40] = test system: NCI-H23 lung
[41] = test system: SW-620 colon
[42] = test system: OVCAR-8 ovarian
[43] = test system: NCI-H226 lung
[44] = test system: ACHN renal
[45] = test system: KM12 colon
[46] = test system: EKVX NSCLC
[47] = test system: K-562 leukemia
[48] = test system: TK-10 renal
[49] = test system: OVCAR-4 ovarian
[50] = test system: MDA-N
[51] = test system: PC-3 prostate
[52] = test system: NCI-H522 lung
[53] = test system: IGROV1 ovarian
[54] = test system: MDA-MB-435
[55] = test system: HS 578T breast
[56] = test system: SK-MEL-5 melanoma
[57] = test system: RPMI-8226 leukemia
[58] = test system: SR leukemia

SMILES: NNC(=O)CNC(=O)CSc1nnc(COc2ccc(Cl)cc2)n1-c1ccccc1
- TGI [1]: > 100 µM
- TGI [2]: > 100 µM
- TGI [3]: > 100 µM
- TGI [4]: > 100 µM
- TGI [5]: > 100 µM
- TGI [6]: > 100 µM
- TGI [7]: > 100 µM
- TGI [8]: > 100 µM
- TGI [9]: > 100 µM
- TGI [10]: > 100 µM
- TGI [11]: > 100 µM
- TGI [12]: > 100 µM
- TGI [13]: > 100 µM
- TGI [14]: > 100 µM
- TGI [15]: > 100 µM
- TGI [16]: > 100 µM
- TGI [17]: > 100 µM
- TGI [18]: > 100 µM
- TGI [19]: > 100 µM
- TGI [20]: > 100 µM
- TGI [21]: > 100 µM
- TGI [22]: > 100 µM
- TGI [23]: > 100 µM
- TGI [24]: > 100 µM
- TGI [25]: > 100 µM
- TGI [26]: > 100 µM
- TGI [27]: > 100 µM
- TGI [28]: > 100 µM
- TGI [29]: > 100 µM
- TGI [30]: > 100 µM
- TGI [31]: > 100 µM
- TGI [32]: > 100 µM
- TGI [33]: > 100 µM
- TGI [34]: > 100 µM
- TGI [35]: > 100 µM
- TGI [36]: > 100 µM
- TGI [37]: > 100 µM
- TGI [38]: > 100 µM
- TGI [39]: > 100 µM
- TGI [40]: > 100 µM
- TGI [41]: > 100 µM
- TGI [42]: > 100 µM
- TGI [43]: > 100 µM
- TGI [44]: > 100 µM
- TGI [45]: > 100 µM
- TGI [46]: > 100 µM
- TGI [47]: > 100 µM
- TGI [48]: > 100 µM
- TGI [49]: > 100 µM
- TGI [50]: > 100 µM
- TGI [51]: > 100 µM
- TGI [52]: > 100 µM
- TGI [53]: > 100 µM
- TGI [54]: > 100 µM

SMILES: COc1cc(OC)c2c(c1OC)OCC(Cc1ccc(O)cc1)C2=O (stereo not drawn)
- TGI [2]: > 25 µM
- TGI [3]: > 25 µM
- TGI [4]: > 25 µM
- TGI [5]: > 25 µM
- TGI [6]: > 25 µM
- TGI [7]: > 25 µM
- TGI [8]: > 25 µM
- TGI [9]: > 25 µM
- TGI [10]: > 25 µM
- TGI [11]: > 25 µM
- TGI [12]: > 25 µM
- TGI [13]: > 25 µM
- TGI [14]: > 25 µM
- TGI [15]: > 25 µM
- TGI [16]: > 25 µM
- TGI [17]: > 25 µM
- TGI [18]: > 25 µM
- TGI [19]: > 25 µM
- TGI [20]: > 25 µM
- TGI [21]: > 25 µM
- TGI [22]: > 25 µM
- TGI [23]: > 25 µM
- TGI [24]: > 25 µM
- TGI [25]: > 25 µM
- TGI [55]: > 25 µM
- TGI [26]: > 25 µM
- TGI [27]: > 25 µM
- TGI [29]: > 25 µM
- TGI [30]: > 25 µM
- TGI [31]: > 25 µM
- TGI [32]: > 25 µM
- TGI [33]: > 25 µM
- TGI [34]: > 25 µM
- TGI [35]: > 25 µM
- TGI [36]: > 25 µM
- TGI [37]: > 25 µM
- TGI [38]: > 25 µM
- TGI [40]: > 25 µM
- TGI [41]: > 25 µM
- TGI [42]: > 25 µM
- TGI [43]: > 25 µM
- TGI [44]: > 25 µM
- TGI [56]: > 25 µM
- TGI [45]: > 25 µM
- TGI [47]: > 25 µM
- TGI [48]: > 25 µM
- TGI [49]: > 25 µM
- TGI [50]: > 25 µM
- TGI [51]: > 25 µM
- TGI [57]: > 25 µM
- TGI [58]: > 25 µM
- TGI [52]: > 25 µM
- TGI [53]: > 25 µM
- TGI [54]: > 25 µM
